Reference: ChEMBL document CHEMBL5120857, “Rational design, synthesis and biological evaluation of dual PARP-1/2 and TNKS1/2 inhibitors for cancer therapy” (Eur J Med Chem, 2022)
Activity calls are given as the source filed them. No cut-off for these calls is given here.

Columns and labels:
[1] = Cytotoxicity against mouse AML12 cells assessed as reduction in cell viability incubated for 7 days by MTT assay; assay type: toxicity, cell-based; settings: time 7 day
HCT-116 [2] = test: Inhibition of PARP in human HCT-116 cells assessed as decrease in pADPr levels at 10 uM by Western blot analysis; assay type: cell-based
MDA-MB-231 = test: Antiproliferative activity against human MDA-MB-231 cells assessed as inhibition of cell growth incubated for 7 days by MTT assay; assay type: functional, cell-based; settings: MDA-MB-231, 168 h
HCT-116 [3] = test: Induction of cell cycle arrest in human HCT-116 cells assessed as G2/M phase cells at 1 uM incubated for 3 days by propidium iodide staining based flow cytometry (reference value: 68.35 %); assay type: functional; settings: time 3 day
HCT-116 [4] = test: Induction of apoptosis in human HCT-116 cells assessed as early apoptotic cells at 1 uM incubated for 3 days by annexinV-FITC/propidium iodide staining based flow cytometry (reference value: 7.67 %); assay type: functional; settings: time 3 day
HCT-116 [5] = test: Inhibition of homologous recombinant repair in human HCT-116 cells assessed as reduction in RAD51 foci formation at 1 uM incubated for 72 hrs by DAPI staining based immunofluorescence analysis; assay type: functional, cell-based
HCT-116 [6] = test: Inhibition of Wnt/beta-Catenin signaling in human HCT-116 cells assessed as decrease in cyclin D1 levels at 10 uM by Western blot analysis; assay type: cell-based
[7] = Toxicity in […] assessed as morphological changes in duodenum at 500 mg/kg, ip by H&E staining based histopathological analysis; assay type: organism-based; settings: in vivo
HCT-116 [8] = test: Antiproliferative activity against human HCT-116 cells assessed as inhibition of cell growth incubated for 7 days by MTT assay; assay type: functional, cell-based; settings: HCT-116, 168 h
HCT-116 [9] = test: Induction of DNA damage in human HCT-116 cells assessed as increase in nuclear gammaH2AX foci incubated for 72 hrs by DAPI staining based immunofluorescence analysis; assay type: functional, cell-based; settings: dose 1.0 µM
[10] = biological target: T1, Protein mono-ADP-ribosyltransferase PARP10 (Homo sapiens, UniProt Q53GL7); test: Inhibition of PARP-10 (unknown origin)
T1 sequence (Q53GL7 whole entry): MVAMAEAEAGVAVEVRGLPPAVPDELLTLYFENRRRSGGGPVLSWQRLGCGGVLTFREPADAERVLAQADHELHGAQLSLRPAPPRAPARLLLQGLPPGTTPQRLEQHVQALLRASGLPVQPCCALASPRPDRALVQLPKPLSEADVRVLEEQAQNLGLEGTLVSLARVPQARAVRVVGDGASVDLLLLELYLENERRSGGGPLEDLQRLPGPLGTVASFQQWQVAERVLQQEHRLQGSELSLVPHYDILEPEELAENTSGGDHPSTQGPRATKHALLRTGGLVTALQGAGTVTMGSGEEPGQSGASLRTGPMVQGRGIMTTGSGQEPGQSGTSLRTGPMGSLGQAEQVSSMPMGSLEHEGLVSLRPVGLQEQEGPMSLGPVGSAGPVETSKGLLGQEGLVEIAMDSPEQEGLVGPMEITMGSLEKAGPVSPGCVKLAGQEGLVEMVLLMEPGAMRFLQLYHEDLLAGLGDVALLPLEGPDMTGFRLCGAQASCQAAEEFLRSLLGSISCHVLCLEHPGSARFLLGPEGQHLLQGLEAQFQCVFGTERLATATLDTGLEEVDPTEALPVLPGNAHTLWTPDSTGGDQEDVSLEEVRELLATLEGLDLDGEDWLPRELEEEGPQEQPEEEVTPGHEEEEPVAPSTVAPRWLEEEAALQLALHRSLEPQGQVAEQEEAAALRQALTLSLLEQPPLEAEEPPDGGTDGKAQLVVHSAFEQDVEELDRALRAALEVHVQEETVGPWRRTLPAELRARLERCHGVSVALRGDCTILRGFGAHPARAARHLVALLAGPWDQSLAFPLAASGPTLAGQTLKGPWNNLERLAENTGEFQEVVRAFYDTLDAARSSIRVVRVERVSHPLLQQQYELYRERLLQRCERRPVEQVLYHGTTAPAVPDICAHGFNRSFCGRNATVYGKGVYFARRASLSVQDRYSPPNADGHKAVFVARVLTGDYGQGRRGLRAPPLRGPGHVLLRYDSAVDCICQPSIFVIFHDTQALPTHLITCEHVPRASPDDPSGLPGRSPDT

HCT-116 [11] = test: Induction of cell cycle arrest in human HCT-116 cells assessed as G0/G1 phase cells at 5 uM incubated for 3 days by propidium iodide staining based flow cytometry (reference value: 68.35 %); assay type: functional; settings: time 3 day
HCT-116 [12] = test: Induction of cell cycle arrest in human HCT-116 cells assessed as G2/M phase cells at 5 uM incubated for 3 days by propidium iodide staining based flow cytometry (reference value: 68.35 %); assay type: functional; settings: time 3 day

## COc1ccc(NC(=O)c2ccc(NC(=O)N3CCN(C(=O)c4cc(Cc5n[nH]c(=O)c6ccccc56)ccc4F)CC3)cc2)cc1
[1]
  CC50 at 168 h: 117 µM
HCT-116 [2]
  inhibition: Active
MDA-MB-231
  IC50: 870 nM
HCT-116 [3]
  Activity: 31.42%
HCT-116 [4]
  Activity: 6.86%
HCT-116 [5]
  inhibition: Active
HCT-116 [6]
  inhibition: Active
[7]
  Activity: Non-Toxic
HCT-116 [8]
  IC50: 750 nM
HCT-116 [9]
  Activity: Active
[10]
  IC50: 140 nM
HCT-116 [11]
  Activity: 41.21%
HCT-116 [12]
  Activity: 54.6%
